From patent US6878381B2, “Resorcinol composition” (Pfizer, Inc, priority 1999, dated 2005)

Tests used:
human tyrosinase = biological target: T1, human tyrosinase (Homo sapiens, UniProt P14679); assay: Tyrosinase (DOPA oxidase) assay using cell lysate; type: biochemical; settings: SKMEL 188 human melanoma cell lysate; L-DOPA 100 μg/ml; 8 hr incubation; read at 405 nm
T1 construct: endogenous in cells; host or cells: SKMEL 188 human melanoma cell line (lysate)
T1 sequence (P14679 19-529): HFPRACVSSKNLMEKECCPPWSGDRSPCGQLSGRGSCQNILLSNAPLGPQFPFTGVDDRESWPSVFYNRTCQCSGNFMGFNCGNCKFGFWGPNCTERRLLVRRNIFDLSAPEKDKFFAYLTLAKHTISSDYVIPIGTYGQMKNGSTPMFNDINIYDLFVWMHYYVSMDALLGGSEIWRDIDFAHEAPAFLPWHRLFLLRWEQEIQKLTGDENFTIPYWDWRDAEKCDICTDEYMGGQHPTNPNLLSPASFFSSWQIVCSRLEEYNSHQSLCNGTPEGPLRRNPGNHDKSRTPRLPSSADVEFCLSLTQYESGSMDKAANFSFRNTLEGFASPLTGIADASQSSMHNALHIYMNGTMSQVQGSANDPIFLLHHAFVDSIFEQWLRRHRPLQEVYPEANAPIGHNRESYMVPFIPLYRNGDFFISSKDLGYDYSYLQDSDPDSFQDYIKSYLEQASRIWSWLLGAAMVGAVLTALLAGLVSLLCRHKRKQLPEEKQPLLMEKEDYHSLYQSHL
Description: 1. Tyrosinase (DOPA Oxidase) Assay Using Cell Lysate:
Human melanoma cell line, SKMEL 188 (licensed from Memorial Sloan-Kettering), is used in the cell lysate assay and the screen. In the assay, compounds and L-dihydroxyphenylalanine (L-DOPA) (100 μg/ml) are incubated with the cell lysates containing human tyrosinase for 8 hr before the plates are read at 405 nm. Potency of the compounds in DOPA oxidase assay is correlated very well with that in tyrosine hydroxylase assay using ^3H-tyrosine as a substrate.

[1] = tested on: guinea pig skin pigmentation; assay: In vivo study: skin depigmentation in black or dark brown guinea pigs; settings: 5% solution in ethanol:propylene glycol 70:30, topical, twice daily, 5 days per week for 4-8 weeks
Description: Black or dark brown guinea pigs with homogeneous skin color can be used in this study. A solution of the test compound (5% in ethanol:propylene glycol, 70:30) and the vehicle control are applied to the animals twice daily, 5 days per week for 4-8 weeks.

## Oc1ccc(C2CCC(O)CC2)c(O)c1 (centres unmarked) [4-(2,4-dihydroxyphenyl)cyclohexanol]
Human tyrosinase
  IC50: 0.2 µM
[1]
  depigmentation of skin: depigmentation of skin
